Test results from patent US7772241B2, “Variolin derivatives and their use as antitumor agents” (Pharma Mar S.A., priority 2001, dated 2010).
Read-outs that look alike come from different tables or passages of the source.

Assays:
SK-OV-3 = assay: Inhibition of cells growth by colorimetric (SRB) assay, SK-OV-3; conditions: for CC50: read-out: LC50 SKOV-3, SRB assay, 48 hours exposure
Procedure, shortened: (§1)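 Human tumour cells seeded at 5×10^3/well in RPMI 1640 10% FBS, attached 18 h, then exposed 48 h to samples at 10 to 10^−8 μg/ml in DMSO/EtOH/PBS (0.5:0.5:99). Growth read by SRB staining after TCA fixation, OD 490 nm, triplicate wells; GI, TGI and LC derived.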

IGROV-ET = assay: Inhibition of cells growth by colorimetric (SRB) assay, IGROV-ET; conditions: for CC50: read-out: LC50 IGROV-ET, SRB assay, 48 hours exposure
Procedure, shortened: as §1

SK-MEL-28 = assay: Inhibition of cells growth by colorimetric (SRB) assay, SK-MEL-28; conditions: for CC50: read-out: LC50 MEL-28, SRB assay, 48 hours exposure
Procedure, shortened: as §1

PANC-1 = assay: Inhibition of cells growth by colorimetric (SRB) assay, PANC-1; conditions: for CC50: read-out: LC50 PANC-1, SRB assay, 48 hours exposure
Procedure, shortened: as §1

LoVo = assay: Inhibition of cells growth by colorimetric (SRB) assay, LoVo; conditions: for CC50: read-out: LC50 LOVO, SRB assay, 48 hours exposure
Procedure, shortened: as §1

IGROV-1 = assay: Inhibition of cells growth by colorimetric (SRB) assay, IGROV-1
Procedure, shortened: as §1

LNCaP = assay: Inhibition of cells growth by colorimetric (SRB) assay, LNCaP
Procedure, shortened: as §1

SK-BR-3 = assay: Inhibition of cells growth by colorimetric (SRB) assay, SK-BR-3; conditions: for CC50: read-out: LC50 SK-BR-3, SRB assay, 48 hours exposure
From the text: The finality of these assays is to interrupt the growth of a “in vitro” tumor cell culture by means a continued exhibition of the cells to the sample to be testing.
This form of the assay employs 96 well cell culture microplates of 9 mm diameter (Faircloth, 1988; Mosmann, 1983). Most of the cell lines are obtained from American Type Culture Collection (ATCC) derived from different human cancer types.
Cells are maintained in RPMI 1640 10% FBS, supplemented with 0.1 g/l penicillin and 0.1 g/l streptomycin sulphate and then incubated at 37° C., 5% CO2 and 98% humidity. For the experiments, cells were harvested from subconfluent cultures using trypsin and resuspended in fresh medium before plating.
Cells are seeded in 96 well microtiter plates, at 5×10^3 cells per well in aliquots of 195 μl medium, and they are allowed to attach to the plate surface by growing in drug free medium for 18 hours. Afterward, samples are added in aliquots of 5 μl in a ranging from 10 to 10^−8 μg/ml, dissolved in DMSO/EtOH/PBS (0.5:0.5:99). After 48 hours exposure, the antitumor effect are measured by the SRB methodology: cells are fixed by adding 50 μl of cold 50% (wt/vol) trichloroacetic acid (TCA) and incubating for 60 minutes at 4° C. Plates are washed with deionized water and dried. One hundred μl of SRB solution (0.4% wt/vol in 1% acetic acid) is added to each microtiter well and incubated for 10 minutes at room temperature. Unbound SRB is removed by washing with 1% acetic acid. Plates are air dried and bound stain is solubilized with Tris buffer. Optical densities are read on a automated spectrophotometric plate reader at a single wavelength of 490 nm.
The values for mean +/−SD of data from triplicate wells are calculated. Some parameters for cellular responses can be calculated: GI=growth inhibition, TGI=total growth inhibition (cytostatic effect) and LC=cell killing (cytotoxic effect).

LoVo-Dox = assay: Inhibition of cells growth by colorimetric (SRB) assay, LoVo-Dox; conditions: for GI50 / CC50: Homo sapiens, 48 h; for GI50: read-out: GI50 LOVO-DOX, SRB assay, 48 hours exposure; for CC50: read-out: LC50 LOVO-DOX, SRB assay, 48 hours exposure; for TGI LOVO-DOX: SRB assay, 48 hours exposure
Procedure, shortened: as §1

K-562 = assay: Inhibition of cells growth by colorimetric (SRB) assay, K-562; conditions: for GI50 / CC50: Homo sapiens, K562, 48 h; for GI50: read-out: GI50 K-562, SRB assay, 48 hours exposure; for CC50: read-out: LC50 K-562, SRB assay, 48 hours exposure; for TGI K-562: SRB assay, 48 hours exposure
Procedure, shortened: as §1

A-549 = assay: Inhibition of cells growth by colorimetric (SRB) assay, A-549; conditions: for CC50: read-out: LC50 A-549, SRB assay, 48 hours exposure
Procedure, shortened: as §1

DU-145 = assay: Inhibition of cells growth by colorimetric (SRB) assay, DU-145; conditions: for CC50: read-out: LC50 DU-145, SRB assay, 48 hours exposure
Procedure, shortened: as §1

HT-29 = assay: Inhibition of cells growth by colorimetric (SRB) assay, HT-29; conditions: for GI50 / CC50: Homo sapiens, HT-29, 48 h; for GI50: read-out: GI50 HT-29, SRB assay, 48 hours exposure; for CC50: read-out: LC50 HT-29, SRB assay, 48 hours exposure; for TGI HT-29: SRB assay, 48 hours exposure
Procedure, shortened: as §1

[1] = Homo sapiens, SK-OV-3, 48 h, read-out: GI50 SKOV-3, SRB assay, 48 hours exposure
[2] = Homo sapiens, 48 h, read-out: GI50 IGROV-ET, SRB assay, 48 hours exposure
[3] = Homo sapiens, SK-MEL-28, 48 h, read-out: GI50 MEL-28, SRB assay, 48 hours exposure
[4] = Homo sapiens, PANC-1, 48 h, read-out: GI50 PANC-1, SRB assay, 48 hours exposure
[5] = Homo sapiens, LoVo, 48 h, read-out: GI50 LOVO, SRB assay, 48 hours exposure
[6] = Homo sapiens, IGROV-1, 48 h, read-out: GI50 IGROV, SRB assay, 48 hours exposure
[7] = Homo sapiens, IGROV-1, 48 h, read-out: LC50 IGROV, SRB assay, 48 hours exposure
[8] = Homo sapiens, LNCaP, 48 h, read-out: GI50 LN-caP, SRB assay, 48 hours exposure
[9] = Homo sapiens, LNCaP, 48 h, read-out: LC50 LN-caP, SRB assay, 48 hours exposure
[10] = Homo sapiens, SK-BR-3, 48 h, read-out: GI50 SK-BR-3, SRB assay, 48 hours exposure
[11] = Homo sapiens, A549, 48 h, read-out: GI50 A-549, SRB assay, 48 hours exposure
[12] = Homo sapiens, DU-145, 48 h, read-out: GI50 DU-145, SRB assay, 48 hours exposure

SMILES	CC50 (SK-OV-3; Homo sapiens, SK-OV-3, 48 h) [µM]	TGI SKOV-3 (SK-OV-3; SRB assay, 48 hours exposure)	CC50 (IGROV-ET; Homo sapiens, 48 h) [µM]	TGI IGROV-ET (IGROV-ET; SRB assay, 48 hours exposure)	CC50 (SK-MEL-28; Homo sapiens, SK-MEL-28, 48 h) [µM]	TGI MEL-28 (SK-MEL-28; SRB assay, 48 hours exposure)	CC50 (PANC-1; Homo sapiens, PANC-1, 48 h) [µM]	TGI PANC-1 (PANC-1; SRB assay, 48 hours exposure)	CC50 (LoVo; Homo sapiens, LoVo, 48 h) [µM]	TGI LOVO (LoVo; SRB assay, 48 hours exposure)	TGI IGROV (IGROV-1; SRB assay, 48 hours exposure)	TGI LN-caP (LNCaP; SRB assay, 48 hours exposure)	CC50 (SK-BR-3; Homo sapiens, SK-BR-3, 48 h) [µM]	TGI SK-BR-3 (SK-BR-3; SRB assay, 48 hours exposure)	GI50 (LoVo-Dox) [µM]	CC50 (LoVo-Dox) [µM]	TGI LOVO-DOX (LoVo-Dox)	GI50 (K-562) [µM]	CC50 (K-562) [µM]	TGI K-562 (K-562)	also measured
COc1ccc2nc3c(cc2c1)c(-c1ccnc(N)n1)c1ccnc(N)n13 [Compound 19b]	28	1.89E−05	20.4	8.17E−06	28	1.65E−05	28	2.80E−05	28	1.97E−05	8.93E−06	8.59E−06	28	8.23E−06	7.42	28	2.10E−05	8.48	28	1.59E−05	GI50 (SK-OV-3; [1]): 8.28 µM; GI50 (IGROV-ET; [2]): 3.27 µM; GI50 (SK-MEL-28; [3]): 4.92 µM; GI50 (PANC-1; [4]): 8.87 µM; GI50 (LoVo; [5]): 3.25 µM; GI50 (IGROV-1; [6]): 4.11 µM; CC50 (IGROV-1; [7]): 19.4 µM; GI50 (LNCaP; [8]): 2.36 µM; CC50 (LNCaP; [9]): 27.6 µM; GI50 (SK-BR-3; [10]): 1.89 µM; GI50 (A-549; [11]): 0.453 µM; CC50 (A-549; Homo sapiens, A549, 48 h): 28 µM; TGI A-549 (A-549; SRB assay, 48 hours exposure): 2.80E−05; GI50 (DU-145; [12]): 5.79 µM; CC50 (DU-145; Homo sapiens, DU-145, 48 h): 28 µM; TGI DU-145 (DU-145; SRB assay, 48 hours exposure): 2.39E−05; GI50 (HT-29): 15.2 µM; CC50 (HT-29): 28 µM; TGI HT-29 (HT-29): 2.80E−05
CSc1nccc(-c2c3cccnc3n3ccccc23)n1 [Compound 55]	≥ 34.2	2.09E−05	≥ 34.2	2.00E−05	≥ 34.2	3.20E−05	≥ 34.2	2.91E−05	≥ 34.2	3.42E−05	1.53E−05	1.55E−05	≥ 34.2	2.32E−05	3.93	26.4	1.02E−05	9.71	≥ 34.2	1.83E−05	GI50 (SK-OV-3; [1]): 7.73 µM; GI50 (IGROV-ET; [2]): 8.79 µM; GI50 (SK-MEL-28; [3]): 11.6 µM; GI50 (PANC-1; [4]): 8.79 µM; GI50 (LoVo; [5]): 9.92 µM; GI50 (IGROV-1; [6]): 7.42 µM; CC50 (IGROV-1; [7]): ≥ 34.2 µM; GI50 (LNCaP; [8]): 6.84 µM; CC50 (LNCaP; [9]): ≥ 34.2 µM; GI50 (SK-BR-3; [10]): 8.82 µM; GI50 (A-549; [11]): 7.29 µM; CC50 (A-549; Homo sapiens, A549, 48 h): ≥ 34.2 µM; TGI A-549 (A-549; SRB assay, 48 hours exposure): 1.90E−05; GI50 (DU-145; [12]): 11.4 µM; CC50 (DU-145; Homo sapiens, DU-145, 48 h): ≥ 34.2 µM; TGI DU-145 (DU-145; SRB assay, 48 hours exposure): 3.38E−05; GI50 (HT-29): 13.2 µM; CC50 (HT-29): ≥ 34.2 µM; TGI HT-29 (HT-29): 3.42E−05
Nc1nccc2c(-c3ccncn3)c3c(O)ccnc3n12 [Compound 100]	≥ 25.5	9.84E−06	22.9	2.33E−06	≥ 25.5	8.08E−06	≥ 25.5	2.55E−05	≥ 25.5	5.12E−06	4.69E−06	3.29E−06	10.6	1.52E−06	1.18	≥ 25.5	1.30E−05	6.78	≥ 25.5	1.49E−05	GI50 (SK-OV-3; read-out: GI50 SKOV-3, SRB assay, 48 hours exposure): 1.74 µM; GI50 (IGROV-ET; read-out: GI50 IGROV-ET, SRB assay, 48 hours exposure): 0.683 µM; GI50 (SK-MEL-28; read-out: GI50 MEL-28, SRB assay, 48 hours exposure): 1.32 µM; GI50 (PANC-1; read-out: GI50 PANC-1, SRB assay, 48 hours exposure): 4.92 µM; GI50 (LoVo; read-out: GI50 LOVO, SRB assay, 48 hours exposure): 0.877 µM; GI50 (IGROV-1; read-out: GI50 IGROV, SRB assay, 48 hours exposure): 1.4 µM; CC50 (IGROV-1; read-out: LC50 IGROV, SRB assay, 48 hours exposure): 13.2 µM; GI50 (LNCaP; read-out: GI50 LN-caP, SRB assay, 48 hours exposure): 1.05 µM; CC50 (LNCaP; read-out: LC50 LN-caP, SRB assay, 48 hours exposure): 10.9 µM; GI50 (SK-BR-3; read-out: GI50 SK-BR-3, SRB assay, 48 hours exposure): 0.464 µM; CC50 (A-549; Homo sapiens, A549, 48 h): ≥ 25.5 µM; TGI A-549 (A-549; SRB assay, 48 hours exposure): 2.63E−06; GI50 (A-549; read-out: GI50 A-549, SRB assay, 48 hours exposure): 0.678 µM; CC50 (DU-145; Homo sapiens, DU-145, 48 h): ≥ 25.5 µM; TGI DU-145 (DU-145; SRB assay, 48 hours exposure): 5.25E−06; GI50 (DU-145; read-out: GI50 DU-145, SRB assay, 48 hours exposure): 0.739 µM; GI50 (HT-29): 14.9 µM; CC50 (HT-29): ≥ 25.5 µM; TGI HT-29 (HT-29): 2.55E−05
